Experimental data: publication PMC12156033, “N-Alkylamino Stilbene Compounds as Amyloid β Inhibitors for Alzheimer’s Disease Research” (Molecules, 2025)
Entries after “also recorded” stand apart in the source; their conditions may differ.

Legend:
soluble Aβ42 = soluble Aβ42 (Homo sapiens, UniProt P05067); assay: ThT control fluorescence turn-on assay with soluble Aβ42; type: binding; settings: [Aβ42] = 5 μM, em 485 nm, ex 435 nm
Procedure: Aβ42 and Aβ42 fibrils was used to control for soluble vs. insoluble amyloid.
text to prepare soluble and fibrillar Aβ42, the UV-vis absorbance was measured for the soluble
Aβ42 used in the control. In a cuvette, 100 μL o f [ A β42] = 20 μM. […]

Aβ40 peptide = biological target: T1, Aβ40 peptide (Homo sapiens, UniProt P05067); assay: Aβ40 aggregation inhibition assay monitored by ThT fluorescence; type: biochemical; settings: 25 μM Aβ40, 5 μM ThT, 5 μM compound, 37 °C, 48 h
T1 construct: a peptide solution of 25 μM Aβ40 monomers (AnaSpec, Fremont, CA, USA) was prepared; purchased AnaSpec
Procedure: To investigate the effect of these compounds on amyloid aggregation, inhibition of aggregation assays were performed using the Aβ40 peptide. Aβ40 has been implicated in inducing oxidative stress and is physiologically the most common isoform of the amyloid peptide and is therefore a widely used isoform in amyloid assays. Aβ40 is also known to have slower aggregation kinetics than Aβ42, which is helpful for studying the inhibition of the early aggregation pathway. […] Thus, a lower RFU can be interpreted as inhibiting the fibrillization of amyloids. The rest of the compounds show appreciable inhibition of Aβ aggregation as found in the Supplementary Materials (Figure S2), except for L9, which contains the morpholine EDG and a methoxy group on the EAG (Figure 3). The addition of the more polar oxygen heteroatom may instead favor hydrogen bonding interactions within the aqueous media, thereby solvating the compound and reducing early interactions with soluble aggregates. Lastly, although L2 and L3 show similar amyloid inhibition, the L3 compound lacking the o-methoxy group begins inhibition at an earlier time. […] This procedure was established in a previous publication.

[1] = biological target: T2, soluble Aβ42 aggregates (sAβ) (Homo sapiens, UniProt P05067); assay: Fluorescence spectra of compounds with soluble Aβ42 aggregates; type: binding; settings: excitation 380 nm; compound 5.0 µM in PBS with soluble Aβ aggregates
T2 construct: commercial Aβ42 peptide (AnaSpec or GL Biochem); purchased AnaSpec or GL Biochem
Procedure: (§1) All fluorescence measurements were performed using a SpectraMax M2e plate reader (Molecular Devices, San Jose, CA, USA). The fluorescence spectra of the compounds’ solution (100 μL PBS, 5.0 µM) were recorded with excitation at 380 nm and an emission wavelength from 400 to 680 nm. To PBS solutions (100 μL) of the compounds (5.0 µM), various Aβ42 species were added, with final concentrations of 5.0 µM and 25.0 µM, and their fluorescence spectra (λmax of emission) were determined as described above.
(§2) Aβ42 powder was prepared by dissolving commercial Aβ42 peptide (AnaSpec or GL Biochem) in ammonium hydroxide solution (1%, v/v). The solution was then aliquoted out and lyophilized overnight. The resulting aliquoted powder was stored at −80 °C. Aβ42 monomers were generated by dissolving Aβ42 powder in 1,1,1,3,3,3-hexafluoro-2-propanol (HFIP, 1 mM) and incubating for 1 h at room temperature. The solution was then evaporated overnight and dried by vacuum centrifuge to result in monomeric films. Aβ42 fibrils were generated by dissolving the monomeric Aβ42 films in DMSO, diluting into the appropriate buffer, and incubating for 24 h at 37 °C with continuous agitation (final DMSO concentration was <2%). For the preparation of Aβ42 oligomers, the peptides were suspended in PBS buffer and incubated overnight at 4 °C.

Aβ42 fibrils = biological target: T3, Aβ42 fibrils (Homo sapiens, UniProt P05067); assay: Fluorescence spectra of compounds with Aβ42 fibrils; type: binding; settings: excitation 380 nm; compound 5.0 µM in PBS with Aβ fibrils
T3 construct: commercial Aβ42 peptide (AnaSpec or GL Biochem); purchased AnaSpec or GL Biochem
Procedure: as §1, §2

[2] = Log D measurement octanol/PBS; type: physicochemical; settings: octanol / PBS pH 7.4, 10 μM, triplicate, ± SD
Procedure: The determination of log D values for N-alkylamino multifunctional compounds was performed using a slightly modified reported procedure. The compounds (final concentration 10 μM) were added to the premix suspension containing 0.5 mL octanol and 0.5 mL octanol-saturated PBS buffer (pH = 7.4). The resulting mixture was stirred vigorously for 5 min and centrifuged at 2000 rpm for 5 min. The octanol layer was separated from the PBS layer, and the fluorescence spectrum was recorded. The remaining 0.5 mL PBS layer was partitioned with 0.5 mL PBS-saturated octanol, and the octanol layer was separated after 5 min of vigorous shaking and centrifuging. The fluorescence spectrum of the octanol layer was recorded. The log D value was calculated based on the fluorescence intensity ratio for the two octanol layers. Each experiment was completed in triplicate, and the error represents the standard deviation for the average log D values.

[3] = tested on: Cu-Aβ42 cytotoxicity on N2a cells; assay: N2a cell rescue from Cu-induced Aβ42 cytotoxicity (Alamar blue); type: cell-based, mouse; settings: [Aβ42] = [CuCl2] = 20 μM, compound 5 μM
Procedure: (§3) Mouse neuroblastoma Neuro2A (N2A) cell lines were purchased from the American Type Culture Collection (ATCC), Manassas, VA, USA. Cells were grown in DMEM/10% FBS, which is the regular growth media for N2A cells, in a humidified atmosphere with 5% CO2 at 37 °C. N2A cells were seeded in a clear 96-well plate (2.5 × 10^4/well) with DMEM/10% FBS. The media was changed to DMEM/N-2 media 24 h later. After 1 h, the treatment reagents were added. Owing to the poor solubility of compounds in the media, the final amount of DMSO used was 1% (v/v). After an additional incubation of 40 h, Alamar Blue solution was added to each well, and the cells were incubated for 90 min at 37 °C. Fluorescence intensity was measured at 590 nm (excitation wavelength = 560 nm).
The Alamar Blue assay was carried out as described, with the following treatment reagents: 20 μM Aβ42 species, 5 μM compounds, and 20 μM CuCl2.

[4] = Fluorescence spectra of the compounds alone in PBS; type: physicochemical; settings: excitation 380 nm; compound 5.0 µM in PBS
Procedure: as §1

[5] = biological target: T4, amyloid plaques in 5xFAD mice brain sections (Homo sapiens, UniProt P05067); assay: Histological staining of 5xFAD mice brain sections, colocalization with HJ3.4 antibody; type: binding, mouse; settings: 11-month-old 5xFAD mice brain sections, compound 25 μM, HJ3.4 1 μg/mL
T4 construct: the amyloid beta (Aβ) peptide that makes up amyloid plaques; tissue Jackson Laboratories; host or cells: brain sections from 11-month-old 5xFAD transgenic mice (Tg6799 line)
Excerpt: To further investigate the affinity of the developed compounds toward various Aβ aggregates in situ, the intrinsic fluorescence properties of the compounds were employed for their ability to stain insoluble amyloid plaques. For these studies, brain sections from 11-month-old 5xFAD transgenic mice, which rapidly develop severe amyloid pathology, were co-stained with stilbenes and HJ3.4 antibody. HJ3.4 is an anti-amyloid antibody that binds to the N-terminal region of the Aβ peptide, thereby targeting both soluble and insoluble amyloid species. To evaluate the Aβ binding specificity of the compounds in vitro, brain sections from 11-month-old 5xFAD mice were washed with PBS (3 × 5 min) and blocked with bovine serum albumin (2% w/v BSA in PBS, pH 7.4, 10 min). Then, the sections were incubated with 25 μM of multifunctional compounds and sequentially stained with HJ3.4 antibody (Professor David Holtzman, 1 μg/mL) for 30 min. The brain sections were treated with 2% w/v BSA-PBS again for 4 min to remove any compounds or antibodies that were non-specifically binding to the tissue. Finally, the sections were washed with PBS (3 × 2 min) and DI water (2 min) and mounted with non-fluorescent mounting media (Vectashield). Colocalization analysis and determination of Pearson’s correlation coefficient were performed with the imaging software Fiji (ImageJ 1.52p). Mouse brains were harvested in compliance with the Institutional Animal Care and Use Committee of the University of Illinois at Urbana-Champaign (IACUC protocol #22094).

[6] = biological target: T5, Aβ aggregates (sAβ and Aβ fibrils) (Homo sapiens, UniProt P05067); assay: Fluorescence turn-on assay with Aβ aggregates; type: binding; settings: compound 5 μM in PBS pH 7.4
T5 construct: commercial Aβ42 peptide (AnaSpec or GL Biochem); purchased AnaSpec or GL Biochem
Procedure: A fluorescence turn-on assay was performed to interrogate the effect of structural differences on the fluorescence enhancement with Aβ aggregates. […] Increases in fluorescence intensity with different aggregates would be ideal for tools used in amyloid-based assays. […] Without the ortho-methoxy group on the EAG, there is greater fluorescence enhancement for Aβ fibrils over sAβ for L3 and L4. […] The larger fluorescence enhancement observed for L6 than L5 indicates the dimethylamine EDG/methoxy EAG pair has a greater TICT. The piperidine-EDG-containing L7 has only slightly higher turn-on with sAβ, which may be attributed to the ortho-methoxy group on the EAG. […] In this case, it appears that the methoxy on the EAG diminishes the overall fluorescence of the compound since L8 has greater baseline fluorescence and turn-on than L7. This is also the case for the morpholine-EDG-containing L9 and L10. The lack of a methoxy group on the L10 EAG, in conjunction with the oxygen heteroatom from the morpholine EDG, electronically favors turn-on with Aβ fibrils to a slight extent. […] Changing the EDG to a methyl piperazine, L11, increases baseline fluorescence and turn-on compared to L9. […] L11 and L12, both containing an N-methyl piperazine EDG, show similar turn-on with sAβ and fibrils, and the o-methoxy EAG of L11 increases overall baseline fluorescence compared to L12. […] The spectra for the remaining compounds can be found in the Supplementary Information (Figure S1). None of the three compounds with the highest fluorescence contained an o-methoxy group on the EAG.
All fluorescence measurements were performed using a SpectraMax M2e plate reader (Molecular Devices, San Jose, CA, USA). The fluorescence spectra of the compounds’ solution (100 μL PBS, 5.0 µM) were recorded with excitation at 380 nm and an emission wavelength from 400 to 680 nm. To PBS solutions (100 μL) of the compounds (5.0 µM), various Aβ42 species were added, with final concentrations of 5.0 µM and 25.0 µM, and their fluorescence spectra (λmax of emission) were determined as described above. […]

[7] = Alamar blue cytotoxicity assay; type: cell-based, mouse; settings: mouse, Neuro2A (N2A) neuroblastoma cells, highest tested concentration (20 μM), 40 h, normalized to DMSO-only control, read-out: cell viability
Procedure: as §3
(§4) The Alamar Blue assay was carried out as described, with the following treatment reagents: 20 μM compounds, 10 μM compounds, 5 μM compounds, and 2 μM compounds.

N2a cells = assay: Alamar blue cytotoxicity assay; type: cell-based, mouse; settings: among the cyclic amine EDG derivatives
Procedure: as §3, §4

T3 sequence (P05067 672-713 limits assumed): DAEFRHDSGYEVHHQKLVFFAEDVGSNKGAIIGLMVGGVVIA
T5 sequence (P05067 672-713 limits assumed): as above
T2 sequence (P05067 672-713 limits assumed): as above
T4 sequence (P05067 672-713 limits assumed): as above
T1 sequence (P05067 672-711 limits assumed): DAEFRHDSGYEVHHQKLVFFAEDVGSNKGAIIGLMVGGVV
Chain of soluble Aβ42 (P05067 672-713 limits assumed): as the sequence (P05067 672-713 limits assumed) above

Row | fluorescence turn-on (soluble Aβ42) | inhibition of Aβ40 aggregation (ThT RFU) (Aβ40 peptide) | Compound+sAβ λem (λmax of emission) [1] | Compound+Fibrils λem (λmax of emission) (Aβ42 fibrils) | logD [2] | Compound λem (λmax of emission) [4] | Pearson's coefficient (R) of colocalization with AF594-HJ3.4 [5] | Compound | effect on Cu-stabilized Aβ42 / Aβ42-induced toxicity [3] | fluorescence enhancement / turn-on with Aβ aggregates [6] | viability at 40 h, 20 µM [7] | cell viability (ranking in words) (N2a cells)
1 | negligible turn-on |  |  |  |  |  |  | Cc1ccc2c(c1)sc(-c1ccc(N(C)C)cc1)[n+]2C [ThT, Thioflavin T] |  |  |  | 
2 |  | least inhibition | 455 nm | 450 nm | 0.93 ± 0.02 | 455 nm | 0.71 | COc1cc(/C=C/c2ccc(N3CCOCC3)cc2)cc(CN2CCN(C)CCN(C)CC2)c1O [Compound L9, (E)-2-((4,7-dimethyl-1,4,7-triazonan-1-yl)methyl)-6-methoxy-4-(4-morpholinostyryl)phenol] | inhibit both Cu-stabilized Aβ42- and Aβ42-induced toxicity; also recorded: rescue cells from Cu-Aβ42 cytotoxicity |  |  | best cell viability
3 |  |  | 430 nm | 435 nm | 0.81 ± 0.01 | 450 nm | 0.65 | CN1CCN(C)CCN(Cc2cc(/C=C/c3ccc(N4CCN(C)CC4)cc3)ccc2O)CC1 [Compound L12, (E)-2-((4,7-dimethyl-1,4,7-triazonan-1-yl)methyl)-4-(4-(4-methylpiperazin-1-yl)styryl)phenol] | rescue cells from Cu-Aβ42 cytotoxicity |  |  | best cell viability

Continued, molecule first:

Row | Compound | fluorescence turn-on (soluble Aβ42) | inhibition of Aβ40 aggregation (ThT RFU) (Aβ40 peptide) | Compound+sAβ λem (λmax of emission) [1] | Compound+Fibrils λem (λmax of emission) (Aβ42 fibrils) | logD [2] | Compound λem (λmax of emission) [4] | Pearson's coefficient (R) of colocalization with AF594-HJ3.4 [5] | effect on Cu-stabilized Aβ42 / Aβ42-induced toxicity [3] | fluorescence enhancement / turn-on with Aβ aggregates [6] | viability at 40 h, 20 µM [7] | cell viability (ranking in words) (N2a cells)
4 | CN1CCN(C)CCN(Cc2cc(/C=C/c3ccc(N4CCCCC4)cc3)ccc2O)CC1 [Compound L8, (E)-2-((4,7-dimethyl-1,4,7-triazonan-1-yl)methyl)-4-(4-(piperidin-1-yl)styryl)phenol] |  | best inhibition | 430 nm | 430 nm | 1.29 ± 0.01 | 460 nm | 0.68 | toxicity was exacerbated | highest fluorescence turn-on; also recorded: greatest overall fluorescence enhancements |  | 
5 | CNc1ccc(/C=C/c2cc(CN3CCN(C)CCN(C)CC3)c(O)c(OC)c2)cc1 [Compound L2, (E)-2-((4,7-dimethyl-1,4,7-triazonan-1-yl)methyl)-6-methoxy-4-(4-(methylamino)styryl)phenol] |  |  | 440 nm | 440 nm | 1.48 ± 0.02 | 460 nm | 0.54 |  |  | 88% | 
6 | CN1CCN(C)CCN(Cc2cc(/C=C/c3ccc(N(C)C)cc3)ccc2O)CC1 [Compound L4, (E)-2-((4,7-dimethyl-1,4,7-triazonan-1-yl)methyl)-4-(4-(dimethylamino)styryl)phenol] |  | greatest inhibition; also recorded: best inhibition | 435 nm | 435 nm | 1.44 ± 0.01 | 455 nm | 0.60 | toxicity was exacerbated | greatest overall fluorescence enhancements |  | 
